Measured values: patent publication US10376523B2, “Aqueous composition containing ripasudil, or a salt, or a solvate thereof” (KOWA COMPANY, LTD., priority 2014, dated 2019)

How the values were obtained:
[1] = system: Pseudomonas aeruginosa NBRC 13275 strain; experiment: Test Example 1: growth inhibitory activity on Pseudomonas aeruginosa (membrane filter method, colony count); assay type: cell-based; details: 2 g ripasudil monohydrochloride dihydrate in 270 mL phosphate buffer pH 7.2
Method: (§1) In order to examine ripasudil for the presence or absence of growth inhibitory activity on microorganisms (bacteria and fungi), the following tests were performed using Pseudomonas aeruginosa as a bacterium and Candida albicans as a fungus. Pseudomonas aeruginosa NBRC 13275 strain was seeded on the soybean-casein digest medium (Merck Corporation) and cultured at 30 to 35° C. for 20 to 22 hours. The culture was then diluted with peptone saline buffer (pH 7.0) to 1,000 CFU/mL or less to obtain a test bacterial suspension. Two grams of ripasudil monohydrochloride dihydrate were dissolved in 270 mL of phosphate buffer (pH 7.2) to obtain a dilute sample solution. A sample was obtained by mixing 0.5 mL of the test bacterial suspension with 50 mL of the dilute sample solution (note that a mixture of 0.5 mL of the test bacterial suspension and 50 mL of phosphate buffer (pH 7.2) was used as a control sample). […] After the culture, the number of colonies formed was counted (note that the test was performed twice, and an average value was determined). From the determined number of colonies, a growth inhibitory ratio (%) was calculated using the following equation: Growth inhibitory ratio (%)=|(the number of colonies for the control sample−the number of colonies for the sample)|/the number of colonies for the control sample×100

[2] = system: Candida albicans NERC 1594 strain; experiment: Test Example 1: growth inhibitory activity on Candida albicans (membrane filter method, colony count); assay type: cell-based; details: 2 g ripasudil monohydrochloride dihydrate in 270 mL phosphate buffer pH 7.2
Method: as §1, with “fungus.” for “fungus. Pseudomonas aeruginosa NBRC 13275 strain was seeded on the soybean-casein digest medium (Merck Corporation) and cultured at 30 to 35° C. for 20 to 22 hours. The culture was then diluted with peptone saline buffer (pH 7.0) to 1,000 CFU/mL or less to obtain a test bacterial suspension.”, “sample×100 Candida albicans NERC 1594 strain was seeded on the Sabouraud-dextrose liquid medium (Merck Corporation) and cultured at 20 to 25° C. for 44 to 46 hours. […] After the culture, the number of colonies formed was counted (note that the test was performed twice, and an average value was determined). A growth inhibitory ratio (%) was also calculated.” for “sample×100”

[3] = at a concentration of 0.001%; cited from earlier work

Compound | Number of Formed Colonies, Sample ([1]; contact 30 minutes or longer, average of two tests, control sample 47 colonies) | Growth Inhibitory Ratio ([1]; versus control sample) | Number of Formed Colonies, Sample ([2]; contact 30 minutes or longer, average of two tests, control sample 37 colonies) | Growth Inhibitory Ratio ([2]; versus control sample) | antimicrobial activity [3]
C[C@H]1CNCCCN1S(=O)(=O)c1cccc2cncc(F)c12 [ripasudil, 4-fluoro-5-[[(2S)-2-methyl-1,4-diazepan-1-yl]sulfonyl]isoquinoline] | 0 | 100% | 23 | 37.8% | –
benzalkonium chloride | – | – | – | – | sufficient antimicrobial activity is not demonstrated
